Here are results for 1 compound from PMC10683025, “Discovery of a Hydroxylamine-Based Brain-Penetrant EGFR Inhibitor for Metastatic Non-Small-Cell Lung Cancer” (Journal of Medicinal Chemistry, 2023).

Common to all, as to assay: KINOMEScan
Holding throughout (format): binding

The target in one assay is T1, ZAK (Homo sapiens, UniProt Q9NYL2).
T1 construct: purchased Eurofins DiscoverX (KINOMEScan service)
The following applies: read-out: Percent Control.

In a further assay the target is T2, DRAK1 (Homo sapiens, UniProt Q9UEE5).
T2 construct: purchased Eurofins DiscoverX (contract assay)
T2 sequence (Q9UEE5 1-414): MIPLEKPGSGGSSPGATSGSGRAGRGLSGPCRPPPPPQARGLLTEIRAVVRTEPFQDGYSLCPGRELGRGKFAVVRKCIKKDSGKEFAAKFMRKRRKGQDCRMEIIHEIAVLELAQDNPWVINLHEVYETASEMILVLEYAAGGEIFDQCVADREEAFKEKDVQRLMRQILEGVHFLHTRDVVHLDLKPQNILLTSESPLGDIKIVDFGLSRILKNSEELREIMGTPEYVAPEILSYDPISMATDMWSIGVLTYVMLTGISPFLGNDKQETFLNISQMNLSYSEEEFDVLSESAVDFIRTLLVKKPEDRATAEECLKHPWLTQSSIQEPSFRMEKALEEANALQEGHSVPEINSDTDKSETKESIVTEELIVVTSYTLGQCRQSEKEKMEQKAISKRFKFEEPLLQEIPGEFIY
The conditions noted are these: DRAK1, 1 μM; read-out: Percent Control.

In a further assay the target is T3, BRK (Homo sapiens, UniProt Q13882).
T3 construct: purchased Eurofins DiscoverX (KINOMEscan)
T3 sequence (Q13882 whole entry): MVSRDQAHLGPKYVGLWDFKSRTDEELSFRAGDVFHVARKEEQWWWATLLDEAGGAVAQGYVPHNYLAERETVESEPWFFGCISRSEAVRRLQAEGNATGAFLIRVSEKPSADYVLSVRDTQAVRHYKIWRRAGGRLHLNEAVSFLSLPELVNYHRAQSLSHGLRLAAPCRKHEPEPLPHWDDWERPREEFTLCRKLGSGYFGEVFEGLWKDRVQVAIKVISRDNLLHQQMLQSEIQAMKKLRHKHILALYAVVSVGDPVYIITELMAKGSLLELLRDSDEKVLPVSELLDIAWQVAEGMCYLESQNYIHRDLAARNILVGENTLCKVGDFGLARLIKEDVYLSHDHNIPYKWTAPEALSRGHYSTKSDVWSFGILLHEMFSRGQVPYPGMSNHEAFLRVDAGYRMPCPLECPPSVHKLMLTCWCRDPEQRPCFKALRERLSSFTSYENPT
The conditions noted are these: read-out: Percent Control.

T1 sequence (Q9NYL2 whole entry): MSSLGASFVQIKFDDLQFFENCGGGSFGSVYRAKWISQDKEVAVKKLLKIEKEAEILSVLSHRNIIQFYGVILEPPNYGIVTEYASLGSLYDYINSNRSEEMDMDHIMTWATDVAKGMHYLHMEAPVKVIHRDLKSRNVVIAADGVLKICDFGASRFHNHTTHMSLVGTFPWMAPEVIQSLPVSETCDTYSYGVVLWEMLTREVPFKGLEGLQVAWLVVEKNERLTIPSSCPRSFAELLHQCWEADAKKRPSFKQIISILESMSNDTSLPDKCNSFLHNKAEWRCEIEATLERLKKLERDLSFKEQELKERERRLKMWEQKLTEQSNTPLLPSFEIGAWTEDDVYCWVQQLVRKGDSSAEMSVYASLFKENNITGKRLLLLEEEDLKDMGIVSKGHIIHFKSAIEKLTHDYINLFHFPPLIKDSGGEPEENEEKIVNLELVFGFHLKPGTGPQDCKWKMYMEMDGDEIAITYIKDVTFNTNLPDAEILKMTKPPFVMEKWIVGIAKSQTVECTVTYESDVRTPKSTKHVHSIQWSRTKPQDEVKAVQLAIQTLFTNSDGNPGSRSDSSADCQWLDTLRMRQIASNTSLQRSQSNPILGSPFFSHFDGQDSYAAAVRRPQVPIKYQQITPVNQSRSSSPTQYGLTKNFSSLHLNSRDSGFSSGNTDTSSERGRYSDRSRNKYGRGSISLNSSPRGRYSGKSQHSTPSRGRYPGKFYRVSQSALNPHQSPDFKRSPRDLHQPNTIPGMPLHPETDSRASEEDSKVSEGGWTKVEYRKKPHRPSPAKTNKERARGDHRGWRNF
Description for BRK: (§1) Percent control was mapped onto the kinome tree using TREEspot.
Description for DRAK1: as §1

Take `COc1cc2ncnc(Nc3cccc(Cl)c3F)c2cc1OCCON1CCN(C)CC1` [Compound 9, N-(3-Chloro-2-fluorophenyl)-7-methoxy-6-(2-((4-methylpiperazin-1-yl)oxy)ethoxy)quinazolin-4-amine]: the remaining binding at 1 µM at ZAK was 89%; on DRAK1 it was 8.3%; at BRK, 94%.
